# PubChem BioAssay (NCI)
#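 These data come from cells grown in 96-well plates and exposed to compound for 48 hours at five concentrations. Here, GI50 denotes the concentration required for 50% inhibition of growth. TGI denotes the concentration required for complete inhibition of growth.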
# What was measured:
# Experiment in all cases: inhibition of tumour cell growth, NCI panel, 48 h
# 786-0 renal = test system: 786-0 renal
# SF-295 CNS = test system: SF-295 CNS
# SF-268 CNS = test system: SF-268 CNS
# U251 CNS = test system: U251 CNS
# SW-620 colon = test system: SW-620 colon
# SNB-19 CNS = test system: SNB-19 CNS
# A549 NSCLC = test system: A549 NSCLC
# HCT-116 colon = test system: HCT-116 colon
# UACC-62 melanoma = test system: UACC-62 melanoma
# UACC-257 melanoma = test system: UACC-257 melanoma
# IGROV1 ovarian = test system: IGROV1 ovarian
# TK-10 renal = test system: TK-10 renal
# HCT-15 colon = test system: HCT-15 colon
# ACHN renal = test system: ACHN renal
# LOX IMVI melanoma = test system: LOX IMVI melanoma
# SK-MEL-5 melanoma = test system: SK-MEL-5 melanoma
# K-562 leukemia = test system: K-562 leukemia
# CAKI-1 renal = test system: CAKI-1 renal
# OVCAR-4 ovarian = test system: OVCAR-4 ovarian
# HOP-92 NSCLC = test system: HOP-92 NSCLC
# CCRF-CEM leukemia = test system: CCRF-CEM leukemia
# RXF 393 renal = test system: RXF 393 renal
# MOLT-4 leukemia = test system: MOLT-4 leukemia
# EKVX NSCLC = test system: EKVX NSCLC
# MCF7 breast = test system: MCF7 breast
# HT29 colon = test system: HT29 colon
# HCC-2998 colon = test system: HCC-2998 colon
# MDA-MB-435 = test system: MDA-MB-435
# SK-OV-3 ovarian = test system: SK-OV-3 ovarian
compound,measurement,setting,value
CCO/C=N/C1=C(C#N)C(c2ccc(F)cc2)c2sc3c(C)cccc3c2O1 (stereo not drawn),GI50,786-0 renal,614 nM
same,TGI,786-0 renal,12900 nM
same,GI50,SF-295 CNS,250 nM
same,TGI,SF-295 CNS,2800 nM
same,GI50,SF-268 CNS,1740 nM
same,TGI,SF-268 CNS,17300 nM
same,GI50,U251 CNS,473 nM
same,TGI,U251 CNS,15500 nM
same,GI50,SW-620 colon,401 nM
same,TGI,SW-620 colon,15800 nM
same,GI50,SNB-19 CNS,452 nM
same,TGI,SNB-19 CNS,16500 nM
same,GI50,A549 NSCLC,458 nM
same,TGI,A549 NSCLC,18700 nM
same,GI50,HCT-116 colon,375 nM
same,TGI,HCT-116 colon,10400 nM
same,GI50,UACC-62 melanoma,404 nM
same,TGI,UACC-62 melanoma,19500 nM
same,GI50,UACC-257 melanoma,12900 nM
same,TGI,UACC-257 melanoma,35600 nM
same,GI50,IGROV1 ovarian,379 nM
same,TGI,IGROV1 ovarian,14900 nM
same,GI50,TK-10 renal,11800 nM
same,TGI,TK-10 renal,27500 nM
same,GI50,HCT-15 colon,336 nM
same,TGI,HCT-15 colon,11500 nM
same,GI50,ACHN renal,616 nM
same,TGI,ACHN renal,14600 nM
same,GI50,LOX IMVI melanoma,626 nM
same,TGI,LOX IMVI melanoma,14100 nM
same,GI50,SK-MEL-5 melanoma,487 nM
same,TGI,SK-MEL-5 melanoma,2530 nM
same,GI50,K-562 leukemia,281 nM
same,TGI,K-562 leukemia,> 62100 nM
same,GI50,CAKI-1 renal,386 nM
same,TGI,CAKI-1 renal,17200 nM
same,GI50,OVCAR-4 ovarian,1700 nM
same,TGI,OVCAR-4 ovarian,24800 nM
same,GI50,HOP-92 NSCLC,624 nM
same,TGI,HOP-92 NSCLC,8000 nM
same,GI50,CCRF-CEM leukemia,359 nM
same,TGI,CCRF-CEM leukemia,21300 nM
same,GI50,RXF 393 renal,175 nM
same,TGI,RXF 393 renal,550 nM
same,GI50,MOLT-4 leukemia,560 nM
same,TGI,MOLT-4 leukemia,32200 nM
same,GI50,EKVX NSCLC,383 nM
same,TGI,EKVX NSCLC,18300 nM
same,GI50,MCF7 breast,271 nM
same,TGI,MCF7 breast,13100 nM
same,GI50,HT29 colon,389 nM
same,TGI,HT29 colon,12600 nM
same,GI50,HCC-2998 colon,421 nM
same,TGI,HCC-2998 colon,12900 nM
same,GI50,MDA-MB-435,178 nM
same,TGI,MDA-MB-435,609 nM
same,GI50,SK-OV-3 ovarian,834 nM
same,TGI,SK-OV-3 ovarian,25500 nM
